These results are taken from patent publication US7635686B2, “Therapeutically useful triethyleneglycol cholesteryl oligonucleotides” (Bioniche Life Sciences, Inc., priority 2001, dated 2009).

One data set has as its system Hs578T cells. Kind of data set: MATRIGEL outgrowth after 1 hr pre-incubation, Hs578T. It is filed as cell-based, human. The note with it: 53 μM pre-incubation 1 hr, 3 days on MATRIGEL, FIG. 1 and FIG. 2. As for the experimental part:
(§1) Various in vitro and in vivo assays may be used to evaluate the influence of the extracellular microenvironment on behavior of normal cells and tumor cells. Such assays may employ MATRIGEL® (Becton Dickinson, Franklin Lakes, N.J.), which is a solubilized basement membrane preparation extracted from the Engelbreth-Holm-Swarm murine sarcoma.
(§2) MCF-7, MDA-MB-231 (MDA-231), Hs578T and Mpanc-96 cells were cultured separately in regular culture medium, trypsinized, and counted. 100×10^3 of MDA-231 cells, 100×10^3 of Hs578T cells, 150×10^3 of MCF-7 cells and 150×10^3 of Mpanc-96 cells were separately pre-incubated for 1 hr at 37° C. in a final concentration of 53 μM of SEQ ID NO:1, 53 μM of SEQ ID NO:5 or RCM, and plated on top of MATRIGEL®-coated plates (MATRIGEL® Basement membrane matrix coated cellware 24-well plate,) for 3 days. Plates were fixed with 10% formalin. Digital photographs of the cells in the 24-well plates were taken using a Nikon Coolpix 990 digital camera (Nikon Corporation, Tokyo, Japan) connected to a Nikon inverted microscope model TMS.
(§3) MDA-MB-231 (MDA-231) and Hs578T were cultured in regular culture medium, trypsinized and counted. 100×10^3 of MDA-MB-231 cells or 100×10^3 of Hs578T cells, were separately pre-incubated for 1 hr at 37° C. in a final concentration of 53 μM of SEQ ID NO:4, 53 μM of SEQ ID NO:8 or RCM and plated on MATRIGEL®-coated plates for 3 days. Plates were fixed with 10% formalin. Digital photographs of the cells in the 24-well plates were taken using a Nikon Coolpix 990 digital camera (Nikon Corporation, Tokyo, Japan) connected to a Nikon inverted microscope model TMS.

Data set [1] deals with Streptococcal cell wall-induced arthritis. Briefly: Streptococcal cell wall-induced arthritis in rats. It is filed as in vivo, LEW/N rats. The note with it: 1, 10, 100 mg/kg with SCW, monitored daily for two weeks; versus SCW alone and unconjugated sequences; dose-dependent. As for the experimental part: Streptococcal cell wall-induced arthritis in LEW/N rats resembles a localized neoplasm consisting of, in part, of a proliferative and invasive population of fibroblast-like synovial cells (Yocum et al., Am. J. Pathol. 132:38, 1988). The arthritis is induced in LEW/N rats by intra-articular injection of streptocococcal cell wall (SCW) from group A Streptococcus pyogenes. The rats are divided into 13 groups of 10 rats. On day 0, group 1 rats receive SCW, group 2 rats receive SCW+1 mg/kg SEQ ID NO:1, group 3 rats receive SCW+10 mg/kg SEQ ID NO:1, group 4 rats receive SCW+100 mg/kg SEQ ID NO:1, group 5 rats receive SCW+1 mg/kg SEQ ID NO:2, group 6 rats receive SCW+10 mg/kg SEQ ID NO:2, group 7 rats receive SCW+100 mg/kg SEQ ID NO:2, group 8 rats receive SCW+1 mg/kg SEQ ID NO:5, group 9 rats receive SCW+10 mg/kg SEQ ID NO:5, group 10 rats receive SCW+100 mg/kg SEQ ID NO:5, group 11 rats receive SCW+1 mg/kg SEQ ID NO:6, group 12 rats receive SCW+10 mg/kg SEQ ID NO:6, group 13 rats receive SCW+[…]. The joint inflammation is monitored daily for two weeks.

The test system of data set [2] is HIG-82 cells. Briefly: Apoptosis by nuclear DNA fragmentation (TUNEL, flow cytometry) in HIG-82 cells. It is filed as cell-based, rabbit. The note with it: 53 μM; for Percentage of cells containing DNA fragmentation (cells in apoptosis) in HIG-82 cells: 48 hours, TUNEL; for Induction of apoptosis in HIG-82 cells (in words): fragmented nuclear DNA. How it is done:
Adherent HIG-82 cells were incubated at 1.0×10^5 cells/ml for 48 hours with 53 μM final concentration of SEQ ID NO:1, SEQ ID NO:2, SEQ ID NO:5 or SEQ ID NO:6. Since phosphatidylserine/annexin V detection of apoptosis was not reliable after adherent cell harvesting techniques, such as trypsinization (van Engeland, Cytometry, 31:1, 1998), apoptosis in HIG-82 cells was evaluated using flow cytometry by the detection of fragmented DNA by terminal deoxynucleotidyl transferase enzyme-mediated bromodeoxyuridine triphosphate-biotin nick end-labeling (TUNEL) using a commercial assay (APO-BRDU™ kit; BD Pharmingen). The percentage of cells containing nuclear DNA fragmentation was determined. After 24 hours, untreated HIG-82 cells were essentially negative for nuclear DNA fragmentation.
In general terms: Flow cytometry measures light scatter and fluorescence of single cells or particles in a stream.

Data set [3] relates to MDA-MB-231 (MDA-231) cells. Briefly: MATRIGEL outgrowth after 1 hr pre-incubation, MDA-231. It is filed as cell-based, human. The note with it: MDA-231, 53 μM pre-incubation 1 hr, 3 days on MATRIGEL, FIG. 1 and FIG. 2. As for the experimental part: as §1, §2, §3
Data set [4] relates to MEG-01 cells. Briefly: MEG-01 cells inoculated subcutaneously in athymic nude mice. It is filed as in vivo. The note with it: 1, 10, 100 mg/kg, after 4 weeks of treatment; versus saline and unconjugated sequences; dose-dependent. How it is done:
MEG-01 cells are inoculated subcutaneously into athymic nude mice as previously described (Takeo et al., Leukemia 7:1286, 1993). The mice are divided into 13 groups of 10 mice. On day 0, group 1 mice receive saline, group 2 mice receive 1 mg/kg SEQ ID NO:1, group 3 mice receive 10 mg/kg SEQ ID NO:1, group 4 mice receive 100 mg/kg SEQ ID NO:1, group 5 mice receive 1 mg/kg SEQ ID NO:2, group 6 mice receive 10 mg/kg SEQ ID NO:2, group 7 mice receive 100 mg/kg SEQ ID NO:2, group 8 mice receive 1 mg/kg SEQ ID NO:5, group 9 mice receive 10 mg/kg SEQ ID NO:5, group 10 mice receive 100 mg/kg SEQ ID NO:5, group 11 mice receive 1 mg/kg SEQ ID NO:6, group 12 mice receive 10 mg/kg SEQ ID NO:6 and group 13 mice receive 100 mg/kg SEQ ID NO:6 After 4 weeks of treatment, the mice are sacrificed and tumor mass is determined.

A further data set has as its system Mpanc-96 cells. Kind of data set: MATRIGEL outgrowth after 1 hr pre-incubation, Mpanc-96. It is filed as cell-based, human. The note with it: Mpanc-96, 53 μM pre-incubation 1 hr, 3 days on MATRIGEL, FIG. 1. How it is done: as §1, §2
For another data set, the system named is MCF-7 cells. Briefly: MATRIGEL outgrowth after 1 hr pre-incubation, MCF-7. It is filed as cell-based, human. The note with it: MCF-7, 53 μM pre-incubation 1 hr, 3 days on MATRIGEL, FIG. 1. As for the experimental part:
as §1, §2

Data set [5] deals with MEG-01 cells. Kind of data set: Apoptosis by phosphatidylserine redistribution (FITC-annexin V flow cytometry) in MEG-01 cells. It is filed as cell-based, human. The note with it: 48 hours; for Percentage of positive cells for phosphatidylserine (cells in apoptosis) in MEG-01 cells: untreated cells 12%; for Induction of apoptosis in MEG-01 cells (in words): translocation of phosphatidylserine, up to 53.0 μM. As for the experimental part:
Redistribution of plasma membrane phosphatidylserine is a characteristic of cells undergoing apoptosis (Martin et al., J. Exp. Med., 182:1545, 1995). The redistribution of phosphatidylserine in the plasma membrane during apoptosis was measured by flow cytometry using FITC (fluorescein isothiocyanate)-conjugated annexin V (BD Pharmingen, San Diego, Calif.). MEG-01 cells, a human chronic myelogeneous leukemia cell line positive for the Philadelphia chromosome and having a BCR-ABL gene fusion, were incubated at 2.5×10^5 cells/ml for 48 hours with 5.3, 26.5 and 53.0 μM final concentrations of SEQ ID NO:1, SEQ ID NO:2, SEQ ID NO:5, SEQ ID NO:6 and cholesteryl-TEG phosphoramidite molecule. The percentage of cells in apoptosis after exposure to the SEQ ID NOs:1, 2, 5, 6, or cholesteryl-TEG phosphoramidite treatment is reported in Table 2. The percentage of apoptosis in untreated MEG-01 cells was 12%.

For data set [6], the system named is HIG-82 cells. Kind of data set: HIG-82 synovial cell proliferation (MTT reduction). It is filed as cell-based, rabbit. The note with it: 53 μM, 48 hours. As for the experimental part:
Adherent HIG-82 cells, a synovial cell line, were incubated at 10×10^5 cells/ml for 48 hours with 53 μM (final concentration) of SEQ ID NO:2, SEQ ID NO:3, SEQ ID NO:4, SEQ ID NO:6, SEQ ID NO:7, or SEQ ID NO:8. Cellular proliferation was measured using dimethylthiazol-diphenyl-tetrazolium (MTT) reduction (Mosman et al., J. Immunol. Methods 65:55, 1983). MTT was measured at a wavelength of 570 nm using a multiple spectrophotometer reader (ELX800, Bio-TEK, Instruments Inc., Winooski, Vt.). The percentage of inhibition, calculated as […]
Background: Tetrazolium dyes change colour on reduction, which living cells bring about.

Data set [7] has as its system MEG-01 cells. Briefly: Cell cycle stage in MEG-01 cells (propidium iodide flow cytometry). It is filed as cell-based, human. The note with it: 24 h. As for the experimental part: To determine a cell cycle stage, various assays and procedures known to one skilled in the art may be employed. One such procedure uses a CYCLETEST™ PLUS DNA commercial kit (Becton Dickinson, Franklin Lakes, N.J.). Briefly, nuclei from cells are obtained by dissolving the cell membrane in a nonionic detergent, eliminating the cell cytoskeleton and nuclear proteins with trypsin, digesting the cellular RNA with RNase, and stabilizing the nuclear chromatin with spermine. Propidium iodide is added to the cell nuclei and their fluorescence was analyzed in a flow cytometer equipped with electronic doublet discrimination capability (FACSCalibur, Becton Dickinson, Franklin Lakes, N.J.). Accumulation of cells in G0/G1, early S (SE), mid S (SM), late S (SL) or G2/M phases of the cell cycle may be analyzed using MODFIT LT software (Verity Software House Inc., Topsham, Mass.), or other appropriate software.
Exponentially growing MEG-01 cells (2×10^5 cells/ml) were incubated for 24 h with 0 μM (control), 53 μM of SEQ ID NO:2 or 53 μM of SEQ ID NO:6. The cells were collected, centrifuged, and cell cycle stage was determined.

{TEG-Chol} = cholesteryl attached through a triethyleneglycol (TEG) spacer, added as cholesteryl-TEG phosphoramidite

As for “5′ OH-GGGTGG(TEG-cholesteryl) 3′ [SEQ ID NO:5]”, the “Formation of 3-dimensional structures / cell morphology on MATRIGEL” value (with Hs578T cells; in data set [3]; in the data set on Mpanc-96 cells; in the data set with MCF-7 cells) was “prevented the formation of 3-dimensional structures” throughout. For the same substance, the Joint inflammation result in data set [1] is on record as “less inflammation”. Further, the “Percentage of cells containing DNA fragmentation (cells in apoptosis) in HIG-82 cells” value in the data set on HIG-82 cells [2] is 17%. In addition, the “Induction of apoptosis in HIG-82 cells (in words)” value with HIG-82 cells [2] is on record as “capacity to induce apoptosis”. Besides, the Tumor mass entry with MEG-01 cells [4] is listed as “less tumor mass”. Moreover, the “Percentage of positive cells for phosphatidylserine (cells in apoptosis) in MEG-01 cells” value in the data set on MEG-01 cells [5] (5.3 μM) came to 12%; in the data set with MEG-01 cells [5] (26.5 μM), 27%; with MEG-01 cells [5] (53.0 μM), 42%. Besides, in the data set with MEG-01 cells [5], the “Induction of apoptosis in MEG-01 cells (in words)” value was “capacity to induce apoptosis”.
As to “5′ OH-GGGAGG(TEG-cholesteryl) 3′ (3' {TEG-Chol}, sugars by position and backbone not given here) [SEQ ID NO:6, 5′-OH, 3′-TEG cholesteryl synthetic oligonucleotide]”, in the data set on HIG-82 cells [6], the “Inhibition of proliferation of synovial HIG-82 cells (in words)” value is reported as “capacity to inhibit the cellular proliferation”. For the same substance, the “Inhibition of HIG-82 cell proliferation, inhibition (%)” value in the data set with HIG-82 cells [6] (MTT) stood at 75%. Further, the Joint inflammation result in data set [1] is given as “less inflammation”. Also, the “Percentage of cells containing DNA fragmentation (cells in apoptosis) in HIG-82 cells” value in the data set on HIG-82 cells [2] is recorded as 18%. Besides, the “Induction of apoptosis in HIG-82 cells (in words)” value in the data set on HIG-82 cells [2] is recorded as “capacity to induce apoptosis”. Further, the Tumor mass result with MEG-01 cells [4] is given as “less tumor mass”. The “Induction of cell cycle arrest in MEG-01 cells (in words)” value with MEG-01 cells [7] (53 μM) is “capacity to induce cell cycle arrest at the SL+G2/M phase”. Further, the “% of cells in phase SM” value in the data set with MEG-01 cells [7] (MEG-01, 53 μM, untreated 10.8) is 6.5%. In addition, the “% of cells in phase SL + G2/M” value with MEG-01 cells [7] (MEG-01, 53 μM, untreated 17.8) came to 41.9%. Also, the “% of cells in phase G0/G1 + SE” value in the data set with MEG-01 cells [7] (MEG-01, 53 μM, untreated 71.4) is 51.6%. The results for the “Percentage of positive cells for phosphatidylserine (cells in apoptosis) in MEG-01 cells” value in the data set on MEG-01 cells [5] (5.3 μM), in the data set with MEG-01 cells [5] (26.5 μM) and in the data set with MEG-01 cells [5] (53.0 μM) were 13%, 22% and 39%, respectively. For the same substance, the “Induction of apoptosis in MEG-01 cells (in words)” value with MEG-01 cells [5] was “capacity to induce apoptosis”.
